# Experimental data published in article PMC10455339, “Combining the Peptide RWQWRWQWR and an Ethanolic Extract of Bidens pilosa Enhances the Activity against Sensitive and Resistant Candida albicans and C. auris Strains” (Journal of Fungi, 2023).
# Where two headings read alike, the source gives them in different places.
# Legend:
# C. albicans SC5314 [1] = assay: microbe, parasite or virus in culture; format: cell-based, Candida albicans; details: Candida albicans, SC5314, n = 3; for MIC: CLSI M27-A4 modified, RPMI 1640, 37 °C, 48 h, MIC = 50% growth inhibition, read-out: MIC; for MFC: subculture on SDA 24 h 37 °C, MFC = eliminates 100% of growth, read-out: MFC
# Description: (§1) For the determination of the MICs, the guidelines of the Clinical Laboratory Standards Institute (CLSI BMD-M27-A4) were used with some modifications. Serial dilutions were made, for peptides from 6.25 to 200 µg/mL and for extracts from 31.2 to 2000 µg/mL, with RPMI 1640 medium in a 96-well microdilution plate (100 µL), and then 100 µL of the adjusted inoculum (0.5–2.5 × 10^3 cells/mL) was added and incubated at 37 °C, and visual and spectrophotometric reading (595 nm) was performed at 48 h. Controls: growth control in RPMI or DMSO, control with a known antifungal: FLC, C. albicans SC5314 (1 µg/mL), C. albicans 256 (64 µg/mL), C. auris 435 (8 µg/mL), and C. auris 537 (128 µg/mL), sterility controls correspond to RPMI medium and SS. The MIC was defined as the minimum concentration of peptide or extract that inhibited 50% of growth compared to the control. To determine the minimal fungicidal concentration (MFC), from the concentrations where no growth was observed, including the controls, a subculture was made on SDA and incubated for 24 h at 37 °C. The MFC was defined as the minimum concentration of peptide or extract that eliminated 100% of the growth compared to the control (n = 3).
# C. auris 435-PUJ-HUSI = assay: Antifungal activity (MIC/MFC), broth microdilution; format: cell-based, Candida auris; details: Candidozyma auris, 435PUJHUSI, FLC-sensitive isolate, n = 3; for MIC: CLSI M27-A4 modified, RPMI 1640, 37 °C, 48 h, MIC = 50% growth inhibition, read-out: MIC; for MFC: subculture on SDA 24 h 37 °C, MFC = eliminates 100% of growth, read-out: MFC
# Description: as §1
# C. auris 537-PUJ-HUSI = assay: Antifungal activity (MIC/MFC), broth microdilution; format: cell-based, Candida auris; details: Candidozyma auris, 537PUJHUSI, FLC- and AmB-resistant isolate, n = 3; for MIC: CLSI M27-A4 modified, RPMI 1640, 37 °C, 48 h, MIC = 50% growth inhibition, read-out: MIC; for MFC: subculture on SDA 24 h 37 °C, MFC = eliminates 100% of growth, read-out: MFC
# Description: as §1
# C. albicans 256-PUJ-HUSI = assay: Antifungal activity (MIC/MFC), broth microdilution; format: cell-based, Candida albicans; details: Candida albicans, 256PUJHUSI, FLC-resistant isolate, n = 3; for MIC: CLSI M27-A4 modified, RPMI 1640, 37 °C, 48 h, MIC = 50% growth inhibition, read-out: MIC; for MFC: subculture on SDA 24 h 37 °C, MFC = eliminates 100% of growth, read-out: MFC
# Description: as §1
# C. auris 537 [2] = tested on: C. auris 537
# Description: (§2) This was performed using the checkerboard test, with some adjustments. Briefly, peptide or extract with FLC, peptide with extract, and extract, peptide, and FLC (final concentrations: 0, 0.06, 0.12, 0.25, 0.50, 1, and 2 times the MIC) were mixed. […] The fractional inhibitory concentration index (FIC I) was calculated as follows: [A/MIC A] + [P/MIC P] = FIC I, where MIC A and MIC P are the MICs of the individual peptide, extract, and/or antifungal. A and P are the MICs of the same, but in combination.
# (§3) The combinations were classified as synergistic (FIC I ≤ 0.5), additive (FIC I > 0.5–1), indifferent (FIC I > 1 < 4), or antagonistic (FIC I > 4).
# C. albicans SC5314 [3] = tested on: C. albicans SC5314
# Description: as §2, §3
# C. albicans 256 [4] = tested on: C. albicans 256
# Description: as §2, §3
# C. auris 435 = tested on: C. auris 435
# Description: as §2, §3
# C. auris 537 [5] = details: previously published, cited from earlier work
# Description: (§4) Table 5 Synergy test. Combination of R-1-R with FLC against C. albicans and C. auris. | column: MICR-1-R; MICFLC; R-1-R; FLC; FIC Index; MICR-1-R/R-1-R; MICFLC/FLC || Initially, the antifungal activity of mixtures of R-1-R/FLC against the C. albicans and C. auris strains was evaluated (Table 5). […] The MIC value of FLC in C. albicans SC5314 was reduced by a factor of 2, while that in C. albicans 256 was reduced by a factor of 8.
# C. albicans 256 [6] = details: previously published, cited from earlier work
# Description: as §4
# C. albicans = details: cited from earlier work
# Source text: Antifungal activity of other phenolic acids, such as chlorogenic acid, has been reported against Candida spp. resistant to FLC, generating a death process similar to apoptosis.
# [7] = B. pilosa extract combined with FLC
# [8] = B. pilosa extract combined with FLC, checkerboard, 37 °C, 48 h
# [9] = B. pilosa extract, R-1-R and FLC combined
# [10] = B. pilosa extract, R-1-R and FLC combined, checkerboard, 37 °C, 48 h
# [11] = R-1-R combined with FLC, checkerboard, 37 °C, 48 h
molecule,measurement,setting,value
O=C(O)/C=C/c1ccc(O)c(O)c1 [Caffeic acid],MIC,C. albicans SC5314 [1],> 2000 mg/L
same,MFC,C. albicans SC5314 [1],> 2000 mg/L
same,MIC,C. auris 435-PUJ-HUSI,> 2000 mg/L
same,MFC,C. auris 435-PUJ-HUSI,> 2000 mg/L
same,MIC,C. auris 537-PUJ-HUSI,> 2000 mg/L
same,MFC,C. auris 537-PUJ-HUSI,> 2000 mg/L
same,MIC,C. albicans 256-PUJ-HUSI,> 2000 mg/L
same,MFC,C. albicans 256-PUJ-HUSI,> 2000 mg/L
O=C(/C=C/c1ccc(O)c(O)c1)O[C@@H](C(=O)O)[C@@H](O)C(=O)O [Caftaric acid],MIC,C. albicans SC5314 [1],> 1000 mg/L
same,MFC,C. albicans SC5314 [1],> 1000 mg/L
same,MIC,C. auris 435-PUJ-HUSI,> 1000 mg/L
same,MFC,C. auris 435-PUJ-HUSI,> 1000 mg/L
same,MIC,C. auris 537-PUJ-HUSI,> 1000 mg/L
same,MFC,C. auris 537-PUJ-HUSI,> 1000 mg/L
same,MIC,C. albicans 256-PUJ-HUSI,> 1000 mg/L
same,MFC,C. albicans 256-PUJ-HUSI,> 1000 mg/L
O=C(/C=C/c1ccc(O)c(O)c1)O[C@@H]1C[C@](O)(C(=O)O)C[C@@H](O)[C@H]1O [Chlorogenic acid],MIC,C. albicans SC5314 [1],> 1000 mg/L
same,MFC,C. albicans SC5314 [1],> 1000 mg/L
same,MIC,C. auris 435-PUJ-HUSI,> 1000 mg/L
same,MFC,C. auris 435-PUJ-HUSI,> 1000 mg/L
same,MIC,C. auris 537-PUJ-HUSI,> 1000 mg/L
same,MFC,C. auris 537-PUJ-HUSI,> 1000 mg/L
same,MIC,C. albicans 256-PUJ-HUSI,> 1000 mg/L
same,MFC,C. albicans 256-PUJ-HUSI,> 1000 mg/L
"OC(Cn1cncn1)(Cn1cncn1)c1ccc(F)cc1F [FLC, fluconazole]",MIC alone/MIC in combination (factor of potentiation),C. auris 537 [2]; [7],4
same,"MIC in combination (E, FLC)",C. auris 537 [2]; [8],32 mg/L
same,MIC alone/MIC in combination (factor of potentiation),C. auris 537 [2]; [9],16
same,"MIC in combination (E, R-1-R, FLC)",C. auris 537 [2]; [10],8 mg/L
same,MIC alone/MIC in combination (factor of potentiation),C. albicans SC5314 [3]; [7],2
same,"MIC in combination (E, FLC)",C. albicans SC5314 [3]; [8],0.125 mg/L
same,MIC alone/MIC in combination (factor of potentiation),C. albicans SC5314 [3]; [9],8
same,"MIC in combination (E, R-1-R, FLC)",C. albicans SC5314 [3]; [10],0.06 mg/L
same,MIC alone/MIC in combination (factor of potentiation),C. albicans SC5314 [3]; R-1-R combined with FLC,2
same,"MIC in combination (R-1-R, FLC)",C. albicans SC5314 [3]; [11],0.0625 mg/L
same,MIC alone/MIC in combination (factor of potentiation),C. albicans 256 [4]; [7],4
same,"MIC in combination (E, FLC)",C. albicans 256 [4]; [8],32 mg/L
same,MIC alone/MIC in combination (factor of potentiation),C. albicans 256 [4]; [9],8
same,"MIC in combination (E, R-1-R, FLC)",C. albicans 256 [4]; [10],4 mg/L
same,MIC alone/MIC in combination (factor of potentiation),C. auris 435; [7],1
same,"MIC in combination (E, FLC)",C. auris 435; [8],8 mg/L
same,MIC alone/MIC in combination (factor of potentiation),C. auris 435; [9],4
same,"MIC in combination (E, R-1-R, FLC)",C. auris 435; [10],1 mg/L
same,MIC alone/MIC in combination (factor of potentiation),C. auris 435; R-1-R combined with FLC,4
same,"MIC in combination (R-1-R, FLC)",C. auris 435; [11],2 mg/L
same,MIC alone/MIC in combination (factor of potentiation),C. auris 537 [5]; R-1-R combined with FLC,8
same,"MIC in combination (R-1-R, FLC)",C. auris 537 [5]; R-1-R combined with FLC,8 mg/L
same,"MIC of the agent alone (MICR-1-R, MICFLC)",C. auris 537 [5]; checkerboard R-1-R + FLC,64 mg/L
same,MIC alone/MIC in combination (factor of potentiation),C. albicans 256 [6]; R-1-R combined with FLC,8
same,"MIC in combination (R-1-R, FLC)",C. albicans 256 [6]; R-1-R combined with FLC,4 mg/L
same,"MIC of the agent alone (MICR-1-R, MICFLC)",C. albicans 256 [6]; checkerboard R-1-R + FLC,32 mg/L
O=C(O)c1cc(O)c(O)c(O)c1 [Gallic acid],MIC,C. albicans SC5314 [1],125 mg/L
same,MFC,C. albicans SC5314 [1],250 mg/L
same,MIC,C. auris 435-PUJ-HUSI,125 mg/L
same,MFC,C. auris 435-PUJ-HUSI,1000 mg/L
same,MIC,C. auris 537-PUJ-HUSI,62.5 mg/L
same,MFC,C. auris 537-PUJ-HUSI,1000 mg/L
same,MIC,C. albicans 256-PUJ-HUSI,62.5 mg/L
same,MFC,C. albicans 256-PUJ-HUSI,125 mg/L
C[C@@H]1O[C@@H](OC[C@H]2O[C@@H](Oc3c(-c4ccc(O)c(O)c4)oc4cc(O)cc(O)c4c3=O)[C@H](O)[C@@H](O)[C@@H]2O)[C@H](O)[C@H](O)[C@H]1O [Rutin],MIC,C. albicans SC5314 [1],> 2000 mg/L
same,MFC,C. albicans SC5314 [1],> 2000 mg/L
same,Reported active concentration,C. albicans,1000 µg/mL
same,MIC,C. auris 435-PUJ-HUSI,> 2000 mg/L
same,MFC,C. auris 435-PUJ-HUSI,> 2000 mg/L
same,MIC,C. auris 537-PUJ-HUSI,> 2000 mg/L
same,MFC,C. auris 537-PUJ-HUSI,> 2000 mg/L
same,MIC,C. albicans 256-PUJ-HUSI,> 2000 mg/L
same,MFC,C. albicans 256-PUJ-HUSI,> 2000 mg/L
"FKCRRWQWRM [Peptide 2, short peptide derived from LfcinB, …]",MIC,C. albicans; reported against other C. albicans strains,17.3 to 17.5 µM
"FKCRRWQWRMKKLGA [LfcinB-20, short peptide derived from LfcinB, printed …]",MIC,C. albicans; reported against C. albicans strains,8 mg/L
